Source: US8648092B2, “Imidazo[1,2-a]pyridine derivatives: preparation and pharmaceutical applications” (MEI Pharma, priority 2005, dated 2014)

Columns and labels:
[1] = target: HDAC1 enzyme (recombinant GST-HDAC1) (Homo sapiens (Human), UniProt Q13547); test: In vitro HDAC assay for determination of IC50 values (BIOMOL fluorescent-based HDAC activity assay); format: biochemical; conditions: Flur de lys substrate, 2 h room temperature, read-out: IC50 (HDAC 1)
Experimental: Biological Testing and Enzyme Assays Recombinant GST-HDAC1 Protein Expression and Purification
Human cDNA library was prepared using cultured SW620 cells. Amplification of human HDAC1 coding region from this cDNA library was cloned separately into the baculovirus expression pDEST20 vector (GATEWAY Cloning Technology, Invitrogen Pte Ltd). The pDEST20-HDAC1 construct was confirmed by DNA sequencing. Recombinant baculovirus was prepared using the Bac-To-Bac method following the manufacturer's instruction (Invitrogen Pte Ltd).
Expression of GST-HDAC1 was done by infecting SF9 cells (Invitrogen Pte Ltd) with pDEST20-HDAC1 baculovirus at MOI=1 for 48 h. Soluble cell lysate was incubated with pre-equilibrated Glutathione Sepharose 4B beads (Amersham) at 4° C. for 2 h. The beads were washed with PBS buffer for 3 times. The GST-HDAC1 protein was eluted by elution buffer containing 50 mM Tris, pH8.0, 150 mM NaCl, 1% Triton X-100 and 10 mM or 20 mM reduced Glutathione. The purified GST-HDAC1 protein was dialyzed with HDAC storage buffer containing 10 mM Tris, pH7.5, 100 mM NaCl and 3 mM MgCl2. 20% Glycerol was added to purified GST-HDAC1 protein before storage at −80° C.
In Vitro HDAC Assay for Determination of IC50 Values
The assay has been carried out in 96 well format and the BIOMOL fluorescent-based HDAC activity assay has been applied. […] Flur de lys Developer was added and the reaction was incubated for 10 min. Briefly, deacetylation of the substrate sensitizes it to the developer, which then generates a fluorophore. The fluorophore is excited with 360 nm light and the emitted light (460 nm) is detected on a fluorometric plate reader (Tecan Ultra Microplate detection system, Tecan Group Ltd.).
The analytical software, Prism 4.0 (GraphPad Software Inc) has been used to generate IC50 from a series of data.

Colo205 cells = test: Cell-based proliferation assay for determination of GI50 values (CyQUANT); parameters: species or system human; conditions: Homo sapiens
Experimental: Cell-Based Proliferation Assay for Determination of GI50 Values
Human cancer cell lines (e.g. Colo205) were obtained from ATCC. Colo205 cells were cultivated in RPMI 1640 containing 2 mM L-Glutamine, 5% FBS, 1.0 mM Na Pyruvate. Colo205 cells were seeded in 96-wells plate at 5000 cells per well. The plates were incubated at 37° C., 5% CO2, for 24 h. Cells were treated with compounds at various concentrations for 96 h. Cell growth was then monitored using CyQUANT® cell proliferation assay (Invitrogen Pte Ltd). Dose response curves were plotted to determine GI50 values for the compounds using XL-fit (ID Business Solution, Emeryville, Calif.). GI50 is defined as the concentration of compound required for 50% inhibition of cell growth.
The cellular or growth inhibition activity results of representative compounds are shown in Table 4 below (unit in the table is micromolar).

HDAC1 enzyme (recombinant GST-HDAC1), sequence (Q13547 whole entry): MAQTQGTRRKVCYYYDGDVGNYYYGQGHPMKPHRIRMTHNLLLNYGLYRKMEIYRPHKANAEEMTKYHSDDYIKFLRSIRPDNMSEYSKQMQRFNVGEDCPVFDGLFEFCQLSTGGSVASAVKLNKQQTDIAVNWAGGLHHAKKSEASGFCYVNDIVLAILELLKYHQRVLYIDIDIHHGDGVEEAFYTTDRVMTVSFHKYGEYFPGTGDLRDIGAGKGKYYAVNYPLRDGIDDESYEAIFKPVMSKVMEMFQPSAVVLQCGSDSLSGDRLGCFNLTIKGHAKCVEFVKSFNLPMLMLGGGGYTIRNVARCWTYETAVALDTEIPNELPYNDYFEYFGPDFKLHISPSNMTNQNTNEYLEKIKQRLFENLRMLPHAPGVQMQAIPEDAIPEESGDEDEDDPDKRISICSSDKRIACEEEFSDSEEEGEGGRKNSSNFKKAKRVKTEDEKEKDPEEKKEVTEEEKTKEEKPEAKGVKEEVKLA

SMILES	IC50 [1] [µM]	GI50 (Colo205 cells; COLO 205, 96 h treatment) [µM]	GI50 (Colo205 cells; COLO 205, 96 h, 96 h treatment) [µM]
CCCCCCc1nc2cc(/C=C/C(=O)NO)ccn2c1NCCC(=O)N(CCC)CCO [Compound 33, 3-(2-Hexyl-3-{2-[(2-hydroxy-ethyl)-propyl-carbamoyl]-ethylamino}-imidazo[1,2-a]pyridin-7-yl)-N-hydroxy-acrylamide]	0.83	27	
CCCCCCc1nc2cc(/C=C/C(=O)NO)ccn2c1NCCC(=O)N(CCOC)C(C)C [Compound 38, 3-(2-Hexyl-3-{2-[isopropyl-(2-methoxy-ethyl)-carbamoyl]-ethylamino}-imidazo[1,2-a]pyridin-7-yl)-N-hydroxy-acrylamide]	0.36	3.5	
CCCCCCc1nc2cc(/C=C/C(=O)NO)ccn2c1NCCC(=O)NCC [Compound 29, 3-[3-(2-Ethylcarbamoyl-ethylamino)-2-hexyl-imidazo[1,2-a]pyridin-7-yl]-N-hydroxy-acrylamide]	0.38	2.1	
CCN(CCN(C)C)Cc1c(-c2ccccc2)nc2cc(/C=C/C(=O)NO)ccn12 [Compound 44, 3-(3-{[(2-Dimethylamino-ethyl)-ethyl-amino]-methyl}-2-phenyl-imidazo[1,2-a]pyridin-7-yl)-N-hydroxy-acrylamide]	2.9	32	
CCCCCc1nc2cc(/C=C/C(=O)NO)ccn2c1NCCOC [Compound 17, (E)-N-hydroxy-3-(3-(2-methoxyethylamino)-2-pentylimidazo[1,2-a]pyridin-7-yl)acrylamide]	0.3	9.9	
CCCCCCc1nc2cc(/C=C/C(=O)NO)ccn2c1NCCC(=O)N(C)C [Compound 30, 3-[3-(2-Dimethylcarbamoyl-ethylamino)-2-hexyl-imidazo[1,2-a]pyridin-7-yl]-N-hydroxy-acrylamide]	0.88	3.9	
CCCCCCc1nc2cc(/C=C/C(=O)NO)ccn2c1NCCC(=O)NC [Compound 36, 3-[2-Hexyl-3-(2-methylcarbamoyl-ethylamino)-imidazo[1,2-a]pyridin-7-yl]-N-hydroxy-acrylamide]	0.39	14	
CCCCCCc1nc2cc(/C=C/C(=O)NO)ccn2c1NCCC(=O)NCCOC [Compound 24, 3-{2-Hexyl-3-[2-(2-methoxy-ethylcarbamoyl)-ethylamino]-imidazo[1,2-a]pyridin-7-yl}-N-hydroxy-acrylamide]	0.13	40	
CCCN(CCO)Cc1c(-c2ccccc2)nc2cc(/C=C/C(=O)NO)ccn12 [Compound 48, N-Hydroxy-3-(3-{[(2-hydroxy-ethyl)-propyl-amino]-methyl}-2-phenyl-imidazo[1,2-a]pyridin-7-yl)-acrylamide]	1	9.2	
O=C(C=Cc1ccn2c(CN3CCC(Cc4ccccc4)CC3)c(-c3ccccc3)nc2c1)NO [Compound 58, 3-[3-(4-Benzyl-piperidin-1-ylmethyl)-2-phenyl-imidazo[1,2-a]pyridin-7-yl]-N-hydroxy-acrylamide]	1.5	2.9	
CCCCCCc1nc2cc(/C=C/C(=O)NO)ccn2c1NCCC(=O)NCC(C)(C)CN(C)C [Compound 35, 3-{3-[2-(3-Dimethylamino-2,2-dimethyl-propylcarbamoyl)-ethylamino]-2-hexyl-imidazo[1,2-a]pyridin-7-yl}-N-hydroxy-acrylamide]	0.14	9.3	

Next, values leading:

IC50 [1] [µM]	GI50 (Colo205 cells; COLO 205, 96 h treatment) [µM]	GI50 (Colo205 cells; COLO 205, 96 h, 96 h treatment) [µM]	SMILES
0.02	0.09		CCCCc1nc2cc(/C=C/C(=O)NO)ccn2c1CN(CC)CCC(C)C [Compound 114, 3-(2-Butyl-3-{[ethyl-(3-methyl-butyl)-amino]-methyl}-imidazo[1,2-a]pyridin-7-yl)-N-hydroxy-acrylamide]
1.2		4.4	CCN(CC)Cc1c(C(C)(C)C)nc2cc(/C=C/C(=O)NO)ccn12 [Compound 80, 3-(2-tert-Butyl-3-diethylaminomethyl-imidazo[1,2-a]pyridin-7-yl)-N-hydroxy-acrylamide]
0.24	2		CCCCCCN(CC)Cc1c(C(C)(C)C)nc2cc(/C=C/C(=O)NO)ccn12 [Compound 90, 3-{2-tert-Butyl-3-[(ethyl-hexyl-amino)-methyl]-imidazo[1,2-a]pyridin-7-yl}-N-hydroxy-acrylamide]
0.27	1.8		CCCN(CC)Cc1c(C(C)(C)C)nc2cc(/C=C/C(=O)NO)ccn12 [Compound 82, 3-{2-tert-Butyl-3-[(ethyl-propyl-amino)-methyl]-imidazo[1,2-a]pyridin-7-yl}-N hydroxy-acrylamide]
0.18	0.68		CCCCc1nc2cc(/C=C/C(=O)NO)ccn2c1CN(CC)CC [Compound 75, 3-(2-Butyl-3-diethylaminomethyl-imidazo[1,2-a]pyridin-7-yl)-N-hydroxy-acrylamide]
> 10	55		CCCCNCc1c(-c2ccccc2)nc2ccc(/C=C/C(=O)NO)cn12 [Compound 66, 3-(3-Butylaminomethyl-2-phenyl-imidazo[1,2-a]pyridin-6-yl)-N-hydroxy-acrylamide]
0.19	1.5		CC(C)(C)CNCc1c(C(C)(C)C)nc2cc(/C=C/C(=O)NO)ccn12 [Compound 67, 3-[2-tert-Butyl-3-[(2,2-dimethyl-propylamino)-methyl]-imidazo[1,2-a]pyridin-7-yl]-N-hydroxy-acrylamide]
0.03	0.26		CCc1nc2cc(/C=C/C(=O)NO)ccn2c1CNC(C)(C)C [Compound 137, 3-[3-(tert-Butylamino-methyl)-2-ethyl-imidazo[1,2-a]pyridin-7-yl]-N-hydroxy-acrylamide]
0.12	1		CCCCN(C)Cc1c(-c2ccccc2)nc2cc(/C=C/C(=O)NO)ccn12 [Compound 71, 3-{3-[(Butyl-methyl-amino)-methyl]-2-phenyl-imidazo[1,2-a]pyridin-7-yl}-N-hydroxy-acrylamide]
0.23	2.1		CC(C)(C)CNCc1c(-c2ccccc2)nc2cc(/C=C/C(=O)NO)ccn12 [Compound 59, 3-{3-[(2,2-Dimethyl-propylamino)-methyl]-2-phenyl-imidazo[1,2-a]pyridin-7-yl}-N-hydroxy-acrylamide]
0.02		0.07	CCCc1nc2cc(/C=C/C(=O)NO)ccn2c1CN(CC)CCC(C)(C)C [Compound 127, 3-(3-{[(3,3-Dimethyl-butyl)-ethyl-amino]-methyl}-2-propyl-imidazo[1,2-a]pyridin-7-yl)-N-hydroxy-acrylamide]
0.35	0.9		CC(C)CCN(C)Cc1c(C(C)(C)C)nc2cc(/C=C/C(=O)NO)ccn12 [Compound 108, 3-(2-tert-Butyl-3-{[methyl-(3-methyl-butyl)-amino]-methyl}-imidazo[1,2-a]pyridin-7-yl)-N-hydroxy-acrylamide]
0.16	0.95		CCCCc1nc2cc(/C=C/C(=O)NO)ccn2c1CN(CC)CC(C)(C)C [Compound 115, 3-(2-Butyl-3-{[(2,2-dimethyl-propyl)-ethyl-amino]-methyl}-imidazo[1,2-a]pyridin-7-yl)-N-hydroxy-acrylamide]
0.03	0.08		CCCc1nc2cc(/C=C/C(=O)NO)ccn2c1CN(CC)CCC(C)C [Compound 126, 3-(3-{[Ethyl-(3-methyl-butyl)-amino]-methyl}-2-propyl-imidazo[1,2-a]pyridin-7-yl)-N-hydroxy-acrylamide]
0.04		0.15	CCCCN(CC)Cc1c(CC(C)C)nc2cc(/C=C/C(=O)NO)ccn12 [Compound 134, 3-{3-[(Butyl-ethyl-amino)-methyl]-2-isobutyl-imidazo[1,2-a]pyridin-7-yl}-N-hydroxy-acrylamide]
> 10	62		CC(C)(C)NCc1c(-c2ccccc2)nc2ccc(/C=C/C(=O)NO)cn12 [Compound 65, 3-[3-(tert-Butylamino-methyl)-2-phenyl-imidazo[1,2-a]pyridin-6-yl]-N-hydroxy-acrylamide]
0.47	2.1		CCCC(C)CN(CC)Cc1c(C(C)(C)C)nc2cc(/C=C/C(=O)NO)ccn12 (centres unmarked) [Compound 91, 3-(2-tert-Butyl-3-{[ethyl-(2-methyl-pentyl)-amino]-methyl}-imidazo[1,2-a]pyridin-7-yl)-N-hydroxy-acrylamide]
